Each structure is given as a SMILES string.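 Dose response: 5 concentrations. Exposure: 48 h. Format: 96-well plates. Endpoint: linear interpolation; highest concentration if not reached. Here, GI50 denotes the concentration required for 50% inhibition of growth. At the TGI there is no net growth.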

Test systems include CAKI-1 renal; MDA-MB-231 breast; M14 melanoma; NCI-H226 lung; HOP-18 NSCLC; DLD-1 colon; MALME-3M melanoma; HCC-2998 colon; SN12K1 renal; M19-MEL melanoma; DMS 114 small cell lung; DMS 273 small cell lung; HCT-116 colon.
What all share (assay): growth of human tumour cells (NCI), 48 h

On to `NCCCNc1nc2ccccc2c2c(=O)c3cc(C(F)(F)F)ccc3sc12`, for which the GI50 in the test on CAKI-1 renal was 1.51 µM; in the test on MDA-MB-231 breast, 1.4 µM; with M14 melanoma it was 1.64 µM. Also, the TGI in the test with CAKI-1 renal turned out to be 2.84 µM; with MDA-MB-231 breast, 2.75 µM; in the test on M14 melanoma, 3.12 µM.
With `CCC1=CC2CN3CCc4c([nH]c5ccccc45)C(C(=O)OC)(C2)C13` (stereo unspecified), the TGI is 46.5 µM in the test on CAKI-1 renal; 23.4 µM in the test on NCI-H226 lung; above 30 µM in the test on HOP-18 NSCLC; 87.5 µM in the test on DLD-1 colon; 92.8 µM in the test with MALME-3M melanoma; above 92.6 µM with HCC-2998 colon. The TGI amounted to 39.6 µM with SN12K1 renal; 85.8 µM in the test with M19-MEL melanoma; 85.1 µM in the test on DMS 114 small cell lung; 91 µM in the test with DMS 273 small cell lung; 71 µM in the test with HCT-116 colon.
As to `Cc1cc(C)nc(NS(=O)(=O)c2ccc(Nc3c4ccccc4nc4c(C(=O)NCCCN(CCO)CCO)cccc34)cc2)n1`, the TGI with CAKI-1 renal was above 100 µM; in the test with MALME-3M melanoma it was 33.6 µM; with MDA-MB-231 breast it was 88.6 µM; with HCC-2998 colon, 33.6 µM; in the test with M14 melanoma, 99.2 µM.
For the compound `COc1cc(C2C(Cl)C(=O)N2NC(=O)c2ccccc2O)ccc1O` (stereo unspecified), the TGI with NCI-H226 lung, in the test on HOP-18 NSCLC, in the test on DLD-1 colon, with MALME-3M melanoma, with HCC-2998 colon and in the test with M14 melanoma was above 100 µM throughout. Moreover, the TGI in the test with M19-MEL melanoma, with DMS 114 small cell lung, with DMS 273 small cell lung and in the test with HCT-116 colon was above 100 µM in each case.
Turning to `O=C1CN2Cc3cc(N4CCOCC4)ccc3N=C2N1`, the TGI in the test on CAKI-1 renal, with NCI-H226 lung, in the test on MALME-3M melanoma, in the test with MDA-MB-231 breast, in the test on M14 melanoma and in the test with HCT-116 colon was above 100 µM throughout.
For `CC1(C23CC4CC(CC(C4)C2)C3)n2c(=O)n(-c3ccccc3)c(=O)n2C1(C)C12CC3CC(CC(C3)C1)C2` (stereo unspecified), the TGI in the test on CAKI-1 renal, with NCI-H226 lung, with MDA-MB-231 breast and in the test with M14 melanoma was above 100 µM in each case.
As for `CON(C)C(C#N)=C(C#N)C#N`, the TGI with CAKI-1 renal, with NCI-H226 lung, in the test on MALME-3M melanoma, in the test on MDA-MB-231 breast, with HCC-2998 colon and with M14 melanoma was above 10 µM each time. For the same compound, the TGI in the test with HCT-116 colon was above 10 µM.
Turning to `COc1nc(SC)nc2c1cnn2C1OC(C(O)CO)C(OC)C1O` (stereo unspecified), the TGI in the test with NCI-H226 lung is above 100 µM; in the test on HOP-18 NSCLC, above 100 µM; with DLD-1 colon it was above 100 µM; in the test with MALME-3M melanoma, above 100 µM; with HCC-2998 colon, above 100 µM; with SN12K1 renal it was above 84 µM. The TGI with M19-MEL melanoma, in the test on DMS 114 small cell lung, with DMS 273 small cell lung and in the test with HCT-116 colon was above 100 µM throughout.
On to `COCC1CCCN1c1ccc(/C=C(/C#N)C(N)=S)cc1` (stereo unspecified), for which the GI50 is above 100 µM with CAKI-1 renal; 34.6 µM in the test with NCI-H226 lung; above 100 µM in the test on MALME-3M melanoma; 9.89 µM in the test with MDA-MB-231 breast; above 100 µM in the test on HCC-2998 colon; above 100 µM with M14 melanoma. For the same compound, the GI50 with HCT-116 colon is above 100 µM. For the same compound, the TGI in the test on CAKI-1 renal is above 100 µM; in the test with NCI-H226 lung, above 100 µM; in the test on MALME-3M melanoma, above 100 µM; in the test on MDA-MB-231 breast, 55.8 µM; in the test with HCC-2998 colon it was above 100 µM; with M14 melanoma it was above 100 µM. In addition, the TGI with HCT-116 colon is above 100 µM.
Consider `CCOC(=O)c1c(C)c2c(n1C)CCc1cn[nH]c1-2`, for which the TGI with CAKI-1 renal, in the test with NCI-H226 lung, in the test with HOP-18 NSCLC, in the test on DLD-1 colon, in the test on MALME-3M melanoma and in the test with HCC-2998 colon was above 100 µM each time. In addition, the TGI in the test with SN12K1 renal, with M19-MEL melanoma, in the test on DMS 114 small cell lung, with DMS 273 small cell lung and in the test with HCT-116 colon was above 100 µM throughout.
Turning to `CCCCC(C)C1CCC2(C)C=CC(=O)C(C)=C2C1O` (stereo unspecified), the TGI in the test with CAKI-1 renal, in the test on NCI-H226 lung, in the test with HOP-18 NSCLC, in the test on DLD-1 colon, in the test with HCC-2998 colon and with SN12K1 renal was above 100 µM throughout. Also, the TGI with M19-MEL melanoma, in the test on DMS 114 small cell lung, with DMS 273 small cell lung and in the test on HCT-116 colon was above 100 µM throughout.
Take `Cc1[nH]c(=O)nc(N/N=C/c2ccc(Cl)cc2)c1C(=O)NC(C)(CO)CO`: the TGI in the test on CAKI-1 renal, in the test on NCI-H226 lung, in the test on MALME-3M melanoma, in the test on HCC-2998 colon, with M14 melanoma and in the test on HCT-116 colon was above 100 µM in each case.
Turning to `CCOC(=O)c1csc(NC(=O)CCN2CCCCC2)n1`, the TGI in the test on CAKI-1 renal, in the test with MALME-3M melanoma, in the test with MDA-MB-231 breast, in the test with HCC-2998 colon and with M14 melanoma was above 100 µM each time.
As for `CN1C2CC(=O)CC1[C@H](O)[C@@H]2O`, the TGI in the test with NCI-H226 lung, with MALME-3M melanoma, in the test on MDA-MB-231 breast, in the test with HCC-2998 colon, in the test on M14 melanoma and in the test on HCT-116 colon was above 100 µM each time.

The record behind these values is PubChem BioAssay (NCI).
